Results as given in ChEMBL document CHEMBL5316350, “Novel Pyrido[2',1':2,3]imidazo[4,5-c]quinoline Derivative Selectively Poisons Leishmania donovani Bisubunit Topoisomerase 1 to Inhibit the Antimony-Resistant Leishmania Infection in Vivo” (J Med Chem, 2023).
The source made the active and inactive calls. No cut-off for these calls is given here.

Key:
[1] = molecular target: T1, DNA topoisomerase I (Leishmania donovani (strain BPK282A1), UniProt E9BRC0); assay: Inhibition of Leishmania donovani Top1 assessed as relaxation of supercoiled pBluescript SK(+) DNA measured by agarose gel electrophoresis analysis
T1 sequence (E9BRC0 whole entry): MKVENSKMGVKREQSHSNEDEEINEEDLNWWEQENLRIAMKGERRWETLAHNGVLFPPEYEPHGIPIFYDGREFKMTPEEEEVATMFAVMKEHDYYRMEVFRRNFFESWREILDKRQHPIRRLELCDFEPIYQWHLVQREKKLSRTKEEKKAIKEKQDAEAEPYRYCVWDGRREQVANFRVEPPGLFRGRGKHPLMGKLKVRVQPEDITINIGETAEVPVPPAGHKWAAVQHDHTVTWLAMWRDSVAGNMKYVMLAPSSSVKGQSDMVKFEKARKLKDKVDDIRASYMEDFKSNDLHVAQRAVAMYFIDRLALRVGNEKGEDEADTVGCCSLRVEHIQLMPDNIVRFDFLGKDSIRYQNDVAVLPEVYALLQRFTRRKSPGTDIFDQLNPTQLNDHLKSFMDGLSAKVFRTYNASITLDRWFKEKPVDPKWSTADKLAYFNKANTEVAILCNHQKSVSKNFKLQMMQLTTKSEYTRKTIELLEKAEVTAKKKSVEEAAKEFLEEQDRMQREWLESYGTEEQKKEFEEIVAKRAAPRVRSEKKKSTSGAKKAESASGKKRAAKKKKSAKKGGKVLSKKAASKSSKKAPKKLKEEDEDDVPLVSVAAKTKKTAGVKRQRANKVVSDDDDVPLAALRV

[2] = molecular target: T1, DNA topoisomerase I; assay: Inhibition of recombinant Top1 in Leishmania donovani Ag83 whole cell extract assessed as relaxation of supercoiled pBluescript SK(+) DNA measured by agarose gel electrophoresis analysis
[3] = molecular target: T2, DNA topoisomerase I (Leishmania donovani (strain BPK282A1)) (UniProt E9BRC0); assay: Inhibition of Leishmania donovani topoisomerase I assessed as DNA intercalation using pBluscript (SK+) DNA as substrate at 50 to 200 uM incubated for 15 mins ethidium bromide staining based UV analysis; conditions: dose 50-200 µM
T2 sequence (whole entry): T1 sequence (E9BRC0 whole entry)

[4] = molecular target: T2, DNA topoisomerase I (Leishmania donovani (strain BPK282A1)); assay: Binding affinity to Leishmania donovani topoisomerase I assessed as DNA intercalation by measuring dislodging of bound fluorophore at 50 uM by EtBr displacement assay
[5] = molecular target: T2, DNA topoisomerase I (Leishmania donovani (strain BPK282A1)); assay: Binding affinity to Leishmania donovani recombinant topoisomerase I assessed as stabilization of cleavage complex at 25 to 50 uM measured after 30 mins; conditions: dose 25-50 µM
[6] = molecular target: T2, DNA topoisomerase I (Leishmania donovani (strain BPK282A1)); assay: Binding affinity to topoisomerase I in Leishmania donovani Ag83 whole cell lysate assessed as stabilization of cleavage complex at 50 to 100 uM measured after 30 mins; type: subcellular; conditions: dose 50-100 µM
[7] = system: Leishmania donovani; assay: Stabilization of Leishmania donovani promastigotes Top1-DNA complex assessed as formation of SDS-KCl precipitable complex incubated for 110 mins by anti-BrdU staining based spectrophotometric analysis
[8] = system: MCF7; assay: Induction of cell cycle arrest in human MCF7 cells assessed as accumulation at G1 sub population measured at 5 uM upto 24 hrs by PI staining based flow cytometry; type: functional
[9] = system: Leishmania donovani; assay: Antileishmanial activity in Leishmania donovani Ag83 promastigotes assessed as Top1cc-induced DNA breakdown by measuring TUNEL positive cells by confocal microscopic analysis; type: functional, organism-based; conditions: time 6-12 hrs, TDE = time-dependent effect
[10] = system: Leishmania donovani; assay: Antileishmanial activity in Leishmania donovani Ag83 promastigotes assessed as reversible of Top1cc-induced DNA breakdown by disappearance of measuring TUNEL positive cells treated for 6 to 12 hrs followed by compound removal measured after 6 to 12 hrs by confocal microscopic analysis; type: functional, organism-based; conditions: time 6-12 hrs
[11] = molecular target: T2, DNA topoisomerase I (Leishmania donovani (strain BPK282A1)); assay: Binding affinity to antimony resistant Leishmania donovani BHU575 promastigotes recombinant topoisomerase I assessed as stabilization of cleavage complex at 50 to 100 uM measured after 30 mins; conditions: dose 50-100 µM
[12] = system: Leishmania donovani; assay: Antileishmanial activity against antimony resistant Leishmania donovani BHU575 promastigotes assessed as cell viability by MTT assay; type: functional, organism-based
[13] = system: Leishmania donovani; assay: Antileishmanial activity against Leishmania donovani Ag83 promastigotes assessed as cell viability by MTT assay; type: functional, organism-based
[14] = system: Leishmania donovani; assay: Antileishmanial activity against Leishmania donovani Ag83 amastigotes infected in BALB/c mouse macrophage assessed as cell viability measured after 48 hrs infection by propidium iodide staining analysis relative to control; type: functional, organism-based; conditions: Ag83, 48 h
[15] = system: Leishmania donovani; assay: Antileishmanial activity against antimony resistant Leishmania donovani BHU575 amastigotes infected in BALB/c mouse macrophage assessed as cell viability measured after 48 hrs infection by propidium iodide staining analysis relative to control; type: functional, organism-based; conditions: BHU575, 48 h
[16] = Cytotoxicity against BALB/c mouse macrophage assessed as cell viability measured after 48 hrs infection by propidium iodide staining analysis relative to control; type: toxicity, cell-based; conditions: mouse macrophages

Row | SMILES | IC50 [1] [µM] | other results
1 | Clc1ccc2nc3c4ccccc4ncc3n2c1 | > 10 | 
2 | Cc1cccn2c1nc1c3ccccc3nc(-c3ccccc3)c12 | 6.75 | IC50 [2]: 12.8 µM
3 | COc1ccc(-c2nc3ccccc3c3nc4cc(C)ccn4c23)cc1 | > 10 | 
4 | c1ccc(-c2nc3ccccc3c3nc4ccccn4c23)cc1 | > 10 | 
5 | Cc1ccc2nc3c4ccccc4ncc3n2c1 | > 10 | 
6 | c1ccc2c(c1)ncc1c2nc2ccccn21 | > 10 | 
7 | Cc1cccn2c1nc1c3ccccc3nc(-c3cccs3)c12 | 7.25 | IC50 [2]: 14.9 µM
8 | O=[N+]([O-])c1ccccc1-c1nc2ccccc2c2nc3ccccn3c12 | > 10 | 
9 | O=[N+]([O-])c1ccc(-c2nc3ccccc3c3nc4ccccn4c23)cc1 | > 10 | 
10 | COc1cc(NS(C)(=O)=O)ccc1Nc1c2ccccc2nc2ccccc12 |  | inhibition [3]: Active; Activity [4]: Active
11 | Cc1cccn2c1nc1c3ccccc3nc(-c3ccc(Cl)cc3)c12 | 5.5 | IC50 [2]: 12.5 µM
12 | Cc1ccc(-c2nc3ccccc3c3nc4ccccn4c23)cc1 | > 10 | 
13 | Cc1ccn2c(c1)nc1c3ccccc3ncc12 | > 10 | 
14 | O=[N+]([O-])c1cccc(-c2nc3ccccc3c3nc4ccccn4c23)c1 | > 10 | 
15 | Cc1ccn2c(c1)nc1c3ccccc3nc(-c3ccccc3)c12 | > 10 | 
16 | COc1cc([C@@H]2c3cc4c(cc3[C@@H](O[C@@H]3O[C@@H]5CO[C@@H](C)O[C@H]5[C@H](O)[C@H]3O)[C@H]3COC(=O)[C@H]23)OCO4)cc(OC)c1O |  | inhibition [3]: inactive
17 | CC[C@@]1(O)C(=O)OCc2c1cc1n(c2=O)Cc2cc3ccccc3nc2-1 [CAMPTOTHECIN] |  | Activity [5]: Active; Activity [6]: Active; Activity [7]: Active; Activity [8]: Active; Activity [9]: Tde; Activity [10]: inactive; Activity [11]: Active; EC50 [12]: 6.58 µM; EC50 [13]: 3.79 µM; EC50 [14]: 7.84 µM; EC50 [15]: 12.8 µM; EC50 at 48 h [16]: 18.3 µM
18 | Clc1ccc(-c2nc3ccccc3c3nc4ccccn4c23)cc1 | 8.52 | 
19 | Brc1ccc2nc3c4ccccc4ncc3n2c1 | > 10 | 
20 | COc1ccc(-c2nc3ccccc3c3nc4ccccn4c23)cc1OC | 5.25 | IC50 [2]: 12 µM
21 | Cc1ccc(-c2nc3ccccc3c3nc4cc(C)ccn4c23)cc1 | > 10 | 
22 | Cc1cccn2c1nc1c3ccccc3nc(-c3ccccn3)c12 | > 10 | 
23 | Cc1ccc(-c2nc3ccccc3c3nc4c(C)cccn4c23)cc1 | 7.25 | IC50 [2]: 15.1 µM
